# Columns and labels:
# [1] = UV-Visible absorption (lambda max) of photochromic test square polymerizates in Varian Cary 3 UV-Visible spectrophotometer; type: physicochemical; settings: 1.5×10-3 molal; for (λ) max (VIS): maximum absorption of the activated (colored) form in the visible spectrum, test square; for (λ) max (UV): wavelength in the ultraviolet range closest to the visible spectrum at which absorption occurs, test square of BPA 2EO DMA/poly(ethylene glycol) 600 dimethacrylate
# Description: (§1) Testing was done with the photochromic compounds described in Examples 1 through 4 and Comparative Examples 1 through 3 in the following manner. A quantity of photochromic compound calculated to yield a 1.5×10-3 molal solution was added to a flask containing 50 grams of a monomer blend of 4 parts ethoxylated bisphenol A dimethacrylate (BPA 2EO DMA), 1 part poly(ethylene glycol) 600 dimethacrylate, and 0.033 weight percent 2,2'-azobis(2-methyl propionitrile) (AIBN). The photochromic compound was dissolved into the monomer blend by stirring and gentle heating, if necessary. After a clear solution was obtained, it was poured into a flat sheet mold having the interior dimensions of 2.2 mm×6 inches (15.24 cm)×6 inches (15.24 cm). The mold was sealed and placed in a horizontal air flow, programmable oven programmed to increase the temperature from 40° C. to 95° C. over a 5 hour interval, hold the temperature at 95° C. for 3 hours, lower it to 60° C. over a 2 hour interval and then hold it at 60° C. for 16 hours. After the mold was opened, the polymer sheet was cut using a diamond blade saw into 2 inch (5.1 centimeters) test squares.
# The ΔOD/Min, which represents the sensitivity of the photochromic compound's response to UV light, was measured over the first five (5) seconds of UV exposure, then expressed on a per minute basis. The saturation optical density (ΔOD@ Saturation) was taken under identical conditions as the ΔOD/Min, except UV exposure was continued for 15 minutes. The lambda max (Vis) is the wavelength in nanometers (nm) in the visible spectrum at which the maximum absorption of the activated (colored) form of the photochromic compound in a test square occurs. The lambda max (Vis) wavelength was determined by testing the photochromic test square polymerizates of Part A in a Varian Cary 3 UV-Visible spectrophotometer. The lambda (λ) max (UV) is the wavelength in nanometers in the ultraviolet range closest to the visible spectrum at which the absorption of the photochromic compound occurs. This absorption was also determined with the same spectrophotometer. The Bleach Rate (T 1/2) is the time interval in seconds for the absorbance of the activated form of the photochromic compound in the test squares to reach one half the highest absorbance at room temperature (72° F., 22.2° C.) after removal of the source of activating light.
# [2] = Photochromic response of test squares on optical bench (sensitivity, saturation optical density, bleach rate); type: physicochemical; settings: for decrease in T 1/2 versus corresponding Comparative Example: % less than corresponding CE (Example 1 vs CE1; average of Examples 2 and 4 vs CE2; Example 3 vs CE3); for ΔOD@ Saturation: UV exposure continued for 15 minutes; for ΔOD@ Saturation / ΔOD/MIN Sensitivity: 72° F. (22.2° C.); for ΔOD/MIN Sensitivity: first five (5) seconds of UV exposure, expressed per minute, 0.15 to 0.20 mW/cm2; for Bleach Rate (T 1/2): time for absorbance of activated form to reach one half the highest absorbance at room temperature (72° F., 22.2° C.) after removal of activating light
# Description: as §1
# The photochromic test squares prepared in Part A were tested for photochromic response on an optical bench. Prior to testing on the optical bench, the photochromic test squares were conditioned, i.e., exposed to 365 nanometer ultraviolet light for about 15 minutes to activate the photochromic compounds and then placed in a 76° C. oven for about 15 minutes to bleach or inactivate the photochromic compounds. The test squares were then cooled to room temperature, exposed to fluorescent room lighting for at least 2 hours and then kept covered for at least 2 hours prior to testing on an optical bench maintained at 72° F. (22.2° C.). The bench was fitted with a 250 watt Xenon arc lamp, a remote controlled shutter, a copper sulfate bath acting as a heat sink for the arc lamp, a Schott WG-320 nm cut-off filter which removes short wavelength radiation; neutral density filter(s) and a sample holder in which the square to be tested was inserted. The power output of the optical bench, i.e., the dosage of light that the sample lens would be exposed to, was calibrated with a photochromic test square used as a reference standard. […] The UV-A detector was placed into the sample holder and the light output was measured. Adjustments to the power output were made by increasing or decreasing the lamp wattage or by adding or removing neutral density filters in the light path.
# A monitoring, collimated beam of light from a tungsten lamp was passed through the square at a small angle (approximately 30°) normal to the square. After passing through the square, the light from the tungsten lamp was directed to a detector through Spectral Energy Corp. GM-200 monochromator set at the previously determined visible lambda max of the photochromic compound being measured. The output signals from the detector were processed by a radiometer.
# Change in optical density (ΔOD) was determined by inserting a test square in the bleached state into the sample holder, adjusting the transmittance scale to 100%, opening the shutter from the Xenon lamp to provide ultraviolet radiation to change the test square from the bleached state to an activated (i.e., darkened) state, measuring the transmittance in the activated state, and calculating the change in optical density according to the formula: ΔOD=log(100/% Ta), where % Ta is the percent transmittance in the activated state and the logarithm is to the base 10.
# The ΔOD/Min, which represents the sensitivity of the photochromic compound's response to UV light, was measured over the first five (5) seconds of UV exposure, then expressed on a per minute basis. The saturation optical density (ΔOD@ Saturation) was taken under identical conditions as the ΔOD/Min, except UV exposure was continued for 15 minutes. […]
Compound,(λ) max (VIS) [1] [nm],(λ) max (UV) [1] [nm],decrease in T 1/2 versus corresponding Comparative Example [2] [%],"Sensitivity, units less than corresponding Comparative Example ([2]; Example 1 versus Comparative Example 1)",ΔOD@ Saturation [2],ΔOD/MIN Sensitivity [2],Bleach Rate (T 1/2) [2] [min]
"2,2-bis(4-methoxyphenyl)-5-methoxycarbonyl-6-methoxy(polyethoxy)-2H-naphtho[1,2-b]pyran [Example 1]",511,353,24,more than 0.02 units,0.48,0.19 ΔOD/MIN,1.72
"COCCOCCOC(=O)c1c2c(c3ccccc3c1-c1ccccc1)OC(c1ccccc1)(c1ccccc1)C=C2 [Example 2, 2,2-diphenyl-5-(2-(2-methoxyethoxy)ethoxycarbonyl)-6-phenyl[2H]naphtho[1,2-b]pyran]",486,348,,,0.67,0.26 ΔOD/MIN,2.78
"COCCOCCOCCOC(=O)c1c2c(c3ccccc3c1C)OC(c1ccccc1)(c1ccccc1)C=C2 [Example 3, 2,2-diphenyl-5-(2-(2-(2-methoxyethoxy)ethoxy)ethoxycarbonyl)-6-methyl-2H-naphtho[1,2b]pyran]",475,349,42,,0.86,0.24 ΔOD/MIN,4.5
"COCCOCCOCCOC(=O)c1c2c(c3ccccc3c1-c1ccccc1)OC(c1ccccc1)(c1ccccc1)C=C2 [Example 4, 2,2-diphenyl-5-(2-(2-(2-methoxyethoxy)ethoxy)ethoxy-carbonyl)-6-phenyl-2H-naphtho[1,2-b]pyran]",486,348,,,0.67,0.28 ΔOD/MIN,2.75

# Continued, values first:
(λ) max (VIS) [1] [nm],(λ) max (UV) [1] [nm],decrease in T 1/2 versus corresponding Comparative Example [2] [%],"Sensitivity, units less than corresponding Comparative Example ([2]; Example 1 versus Comparative Example 1)",ΔOD@ Saturation [2],ΔOD/MIN Sensitivity [2],Bleach Rate (T 1/2) [2] [min],Compound
512,353,,,0.77,0.29 ΔOD/MIN,2.27,"COC(=O)c1c2c(c3ccccc3c1OC)OC(c1ccc(OC)cc1)(c1ccc(OC)cc1)C=C2 [CE1, 2,2-bis(4-methoxyphenyl)-5-methoxycarbonyl-6-methoxy-2H-naphtho[1,2-b]pyran, reference compound]"
486,348,,,0.80,0.28 ΔOD/MIN,3.83,"COC(=O)c1c2c(c3ccccc3c1-c1ccccc1)OC(c1ccccc1)(c1ccccc1)C=C2 [CE2, 2,2-diphenyl-5-methoxycarbonyl-6-phenyl-2H-naphtho[1,2-b]pyran, reference compound]"
476,349,,,1.17,0.23 ΔOD/MIN,7.75,"COC(=O)c1c2c(c3ccccc3c1C)OC(c1ccccc1)(c1ccccc1)C=C2 [CE3, 2,2-diphenyl-5-methoxycarbonyl-6-methyl-2H-naphtho[1,2b]pyran, reference compound]"
